Laboratory results from patent US9078856B2, “Improving efficacy of cancer therapy” (CHILDREN'S MEDICAL CENTER CORPORATION, priority 2010, dated 2015).

Tests used:
TRPV4 = target: T1, TRPV4 (Mus musculus, UniProt Q9EPK8); experiment: Calcium influx in Fluo-4 loaded normal and tumor endothelial cells in response to TRPV4 activator; format: cell-based; details: Fluo-4 loaded cells
T1 construct: normal EC that were isolated from the dermis (MDEC cells) of TRAMP mice were used instead; endogenous in cells; host or cells: tumor endothelial cells (TEC) from TRAMP mouse prostate adenocarcinoma; normal EC (MDEC) from TRAMP mouse dermis
Source text: Cell Culture. Tumor endothelial cells (EC) cells were isolated from transgenic TRAMP mice bearing prostate adenocarcinoma. Because it is difficult to obtain sufficient quantities of EC cells from the normal mouse prostate (due to its small size), normal EC that were isolated from the dermis (MDEC cells) of TRAMP mice were used instead. Normal EC cells from human dermis (HDEC cells; Cambrex) and an established mouse pancreatic EC cell line (MS1-EC cells; gift of Judah Folkman) served as independent non-tumor EC cell controls. […]
(§1) EC cells adherent to the flexible substrates were loaded with Fluo-4/AM (1 μM) for 30 min, washed 3 times in calcium medium (136 mM NaCl, 4.7 mM KCl, 1.2 mM MgSO4, 1.1 mM CaCl2, 1.2 mM KH2PO4, 5 mM NaHCO3, 5.5 mM glucose, and 20 mM Hepes. pH 7.4) and then exposed to mechanical strain (15% elongation) for 3-4 sec using a Stage Flexer (FLEXCELL® International) apparatus that is fixed on a Nikon upright microscope equipped with CCD camera (Spot-RT slider, Diagnostics Corp, USA). Images were acquired for every 4 seconds and analyzed using IP lab software and Microsoft Excel as described in Matthews, et al. (2006) (J. Cell Sci., 119:508-518).
To confirm whether this difference in TRPV4 expression affects TRPV4 function in these cells, the inventors measured calcium influx in Fluo-4 loaded cells in response to specific TRPV4 activator 4-α-PDD.

human TRPV4 = target: T2, human TRPV4 (Homo sapiens, UniProt Q9HBA0); experiment: Calcium influx in TEC transfected with human TRPV4-EGFP construct; format: cell-based
T2 construct: expressed in transfected cells; host or cells: mouse tumor endothelial cells (TEC) from TRAMP mice, Amaxa nucleofection
Experimental: as §1
Next, the inventors transfected TEC with a human TRPV4-EGFP construct and checked its ability to rescue aberrant mechanosensation of tumor EC. […] TRPV4 activator, 4-α-PDD induced almost 8 fold increase in calcium in these cells compared to EGFP alone-transfected TEC (FIG. 2A). The inventors then cultured these TRPV4-overexpressing cells on transglutamase linked gelatin gels of various stiffness (98 to 2,280 Pa) for 6 h and compared their cell spreading over time with that of EGFP-transfected TEC (control). As expected and shown in FIGS. 2B and 2C, TEC cells transfected with only EGFP attached, spread and increases their degree of spreading with the increasing gel stiffness. […]

T1 sequence (Q9EPK8 whole entry): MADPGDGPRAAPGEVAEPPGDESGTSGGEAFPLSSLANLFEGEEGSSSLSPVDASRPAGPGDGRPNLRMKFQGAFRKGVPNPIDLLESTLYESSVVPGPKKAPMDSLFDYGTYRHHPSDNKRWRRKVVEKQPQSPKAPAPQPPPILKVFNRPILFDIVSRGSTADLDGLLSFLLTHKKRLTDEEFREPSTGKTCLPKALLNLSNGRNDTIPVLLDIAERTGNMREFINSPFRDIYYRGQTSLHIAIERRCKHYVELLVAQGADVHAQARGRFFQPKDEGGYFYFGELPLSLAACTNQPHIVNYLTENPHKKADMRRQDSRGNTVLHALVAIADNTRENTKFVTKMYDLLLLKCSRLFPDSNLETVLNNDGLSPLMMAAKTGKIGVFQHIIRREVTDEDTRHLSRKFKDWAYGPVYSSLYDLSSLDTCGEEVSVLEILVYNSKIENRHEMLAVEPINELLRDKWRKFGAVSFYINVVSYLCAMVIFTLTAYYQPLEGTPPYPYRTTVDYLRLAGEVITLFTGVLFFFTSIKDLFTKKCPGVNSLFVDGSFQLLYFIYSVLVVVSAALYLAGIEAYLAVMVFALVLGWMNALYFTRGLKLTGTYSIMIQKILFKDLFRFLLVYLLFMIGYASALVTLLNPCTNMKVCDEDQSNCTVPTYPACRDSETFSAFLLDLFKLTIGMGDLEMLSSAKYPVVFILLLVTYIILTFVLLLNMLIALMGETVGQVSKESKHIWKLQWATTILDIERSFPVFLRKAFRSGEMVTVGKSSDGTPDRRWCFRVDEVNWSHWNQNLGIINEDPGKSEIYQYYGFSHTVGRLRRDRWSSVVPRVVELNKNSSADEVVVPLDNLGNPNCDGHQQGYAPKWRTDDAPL
T2 sequence (Q9HBA0 whole entry): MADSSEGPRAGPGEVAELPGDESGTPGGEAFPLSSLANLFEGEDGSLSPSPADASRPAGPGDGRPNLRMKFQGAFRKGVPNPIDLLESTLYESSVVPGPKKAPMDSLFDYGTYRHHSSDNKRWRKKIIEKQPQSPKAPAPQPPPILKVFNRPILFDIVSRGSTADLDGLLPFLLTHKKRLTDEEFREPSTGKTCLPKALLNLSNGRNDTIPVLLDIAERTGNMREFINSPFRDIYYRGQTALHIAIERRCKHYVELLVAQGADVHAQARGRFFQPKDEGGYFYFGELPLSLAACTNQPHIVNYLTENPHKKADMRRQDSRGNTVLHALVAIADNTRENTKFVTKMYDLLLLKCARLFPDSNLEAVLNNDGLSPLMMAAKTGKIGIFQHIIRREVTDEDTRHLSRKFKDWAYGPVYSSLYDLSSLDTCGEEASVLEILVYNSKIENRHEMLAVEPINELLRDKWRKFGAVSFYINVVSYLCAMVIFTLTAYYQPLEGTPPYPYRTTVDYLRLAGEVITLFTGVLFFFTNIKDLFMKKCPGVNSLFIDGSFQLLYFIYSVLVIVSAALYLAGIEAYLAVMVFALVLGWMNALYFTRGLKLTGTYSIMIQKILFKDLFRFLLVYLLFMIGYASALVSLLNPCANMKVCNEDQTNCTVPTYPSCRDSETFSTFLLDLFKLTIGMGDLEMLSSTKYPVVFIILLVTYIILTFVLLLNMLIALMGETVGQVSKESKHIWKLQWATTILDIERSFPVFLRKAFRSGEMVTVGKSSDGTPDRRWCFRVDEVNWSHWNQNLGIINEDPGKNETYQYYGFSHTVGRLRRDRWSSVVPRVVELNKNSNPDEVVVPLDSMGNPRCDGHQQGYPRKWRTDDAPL

CCCCCCCCCC(=O)O[C@@H]1[C@@H](C)[C@@]2(O)[C@@H](C=C(CO)C[C@@]3(O)C(=O)C(C)=C[C@@H]23)[C@@H]2C(C)(C)[C@]12OC(=O)CCCCCCCCC [4-α-PDD, 4-α-phorbol 12,13-didecanoate]
calcium influx induced in nEC (TRPV4; normal EC (nEC)): rapid robust calcium influx
reduction of induced calcium influx in tumor EC compared with nEC (TRPV4; tumor EC vs nEC): ~40%
increase in calcium compared to EGFP alone-transfected TEC (human TRPV4): ~8 fold
